TGI data for 8 compounds are collected here from PubChem BioAssay (NCI).

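The compound was tested at five concentrations on cells cultured in 96-well plates, with a 48-hour exposure period. TGI: concentration producing complete growth inhibition.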 Where only a bound is given, the exact number is not on record here.

Among the test systems are TK-10 renal; RPMI-8226 leukemia; UACC-257 melanoma; T-47D breast; MCF7 breast; U251 CNS; M14 melanoma; COLO 205 colon; UO-31 renal; NCI-H460 lung; K-562 leukemia; OVCAR-8 ovarian; ACHN renal; HCC-2998 colon; HCT-15 colon; SNB-75 CNS; SK-OV-3 ovarian; SW-620 colon.
Common to all, as to test: DTP human tumour cell line panel, 48 h

What is called TGI is the concentration at which net growth stops. Higher therefore signals lower sensitivity of the cells. As for `Cc1ccc2c(c1)C(=O)C1(C2)Cc2c(C)cccc2C1=O` (centres undefined), the TGI in the assay on TK-10 renal, in the assay with RPMI-8226 leukemia, in the assay on UACC-257 melanoma, in the assay on T-47D breast, in the assay on MCF7 breast and in the assay on U251 CNS was > 100 µM in each case. Also, the TGI with M14 melanoma, in the assay on COLO 205 colon, in the assay with UO-31 renal, in the assay with NCI-H460 lung, in the assay with K-562 leukemia and in the assay on OVCAR-8 ovarian was > 100 µM in each case. The TGI in the assay on ACHN renal, in the assay on HCC-2998 colon, in the assay on HCT-15 colon, in the assay with SNB-75 CNS, in the assay with SK-OV-3 ovarian and with SW-620 colon was > 100 µM in each case.

Take `C[N+]12CCCCC1C(COc1cccc3cccnc13)CCC2` (centres undefined): the TGI in the assay with TK-10 renal, in the assay on RPMI-8226 leukemia, in the assay with UACC-257 melanoma, in the assay with T-47D breast, in the assay on MCF7 breast and in the assay with U251 CNS was > 100 µM throughout. Moreover, the TGI with M14 melanoma, with COLO 205 colon, in the assay on UO-31 renal, in the assay on NCI-H460 lung, in the assay on K-562 leukemia and in the assay on OVCAR-8 ovarian was > 100 µM each time. Moreover, the TGI in the assay with ACHN renal, with HCC-2998 colon, with HCT-15 colon, with SNB-75 CNS, in the assay with SK-OV-3 ovarian and in the assay on SW-620 colon was > 100 µM in each case.

As to `O=S(=O)(O)CCSSCCS(=O)(=O)O`, the TGI in the assay with TK-10 renal, with RPMI-8226 leukemia, in the assay with UACC-257 melanoma, in the assay on T-47D breast, with MCF7 breast and in the assay on U251 CNS was > 1000 µM in each case. Also, the TGI with M14 melanoma, with COLO 205 colon, in the assay with UO-31 renal, in the assay on NCI-H460 lung, with K-562 leukemia and with OVCAR-8 ovarian was > 1000 µM each time. The concentration for total growth inhibition (TGI) in the assay on ACHN renal, in the assay on HCC-2998 colon, in the assay with HCT-15 colon, in the assay on SNB-75 CNS, in the assay with SK-OV-3 ovarian and in the assay on SW-620 colon was > 1000 µM each time.

`O=C(CSc1ncccn1)N/N=C/c1ccccc1OCc1ccccc1`: the TGI in the assay with TK-10 renal came out at 62.4 µM; in the assay with RPMI-8226 leukemia, 43.6 µM; with UACC-257 melanoma, 53.5 µM; in the assay on T-47D breast, 70.7 µM; in the assay on MCF7 breast, 43.9 µM; in the assay with U251 CNS, 81.7 µM. The TGI in the assay on M14 melanoma was > 100 µM; in the assay with COLO 205 colon it was 38.8 µM; with UO-31 renal, > 100 µM; with NCI-H460 lung, 94.9 µM; with K-562 leukemia, > 100 µM; in the assay on OVCAR-8 ovarian, > 100 µM. The TGI is > 100 µM in the assay with ACHN renal; 95.1 µM in the assay on HCC-2998 colon; 65.1 µM in the assay with HCT-15 colon; 67.7 µM in the assay with SNB-75 CNS; > 100 µM in the assay on SK-OV-3 ovarian; > 100 µM in the assay with SW-620 colon.

For `CC(NC(=O)OCc1ccccc1)NC(=O)OC(C)(C)C` (centres undefined), the TGI with TK-10 renal, in the assay on RPMI-8226 leukemia, with UACC-257 melanoma, in the assay with T-47D breast, in the assay on MCF7 breast and in the assay with U251 CNS was > 100 µM in each case. The concentration for total growth inhibition (TGI) with M14 melanoma, in the assay with COLO 205 colon, in the assay with UO-31 renal, in the assay with NCI-H460 lung, in the assay on K-562 leukemia and in the assay on OVCAR-8 ovarian was > 100 µM each time. Also, the TGI with ACHN renal, with HCC-2998 colon, in the assay with HCT-15 colon, in the assay with SNB-75 CNS, in the assay with SK-OV-3 ovarian and in the assay with SW-620 colon was > 100 µM throughout.

For `CC(=O)C(C(=O)c1ccc(C)cc1)[C@@H]1OC(C)(C)O[C@@H]1[C@H]1COC(C)(C)O1` (some centres undefined), the TGI is > 100 µM in the assay on TK-10 renal; 12.5 µM in the assay with RPMI-8226 leukemia; 28.6 µM in the assay with UACC-257 melanoma; > 49.8 µM in the assay on T-47D breast; 15.4 µM in the assay on MCF7 breast; 18.5 µM with U251 CNS. The TGI with M14 melanoma is 35.8 µM; in the assay with COLO 205 colon, 39.6 µM; with UO-31 renal, > 41.5 µM; in the assay on NCI-H460 lung it was > 88.9 µM; in the assay with K-562 leukemia it was > 32 µM; with OVCAR-8 ovarian, > 50.7 µM. In addition, the TGI in the assay on ACHN renal was 32.5 µM; in the assay with HCC-2998 colon it was > 53.4 µM; in the assay on HCT-15 colon, 37 µM; in the assay with SNB-75 CNS, > 59.2 µM; in the assay on SK-OV-3 ovarian, > 100 µM; in the assay on SW-620 colon, > 54.6 µM.

`CCSc1nnc(Sc2c3ccccc3nc3ccccc23)s1`: the TGI is 15.8 µM in the assay with TK-10 renal; > 28 µM in the assay on RPMI-8226 leukemia; 23.6 µM in the assay on UACC-257 melanoma; > 44.2 µM with T-47D breast; 17.5 µM in the assay with MCF7 breast; > 57.9 µM with U251 CNS. The TGI was 32.1 µM with M14 melanoma; 7.01 µM with COLO 205 colon; 23.7 µM in the assay on UO-31 renal; 42.5 µM in the assay with NCI-H460 lung; > 100 µM with K-562 leukemia; > 51.5 µM with OVCAR-8 ovarian. Further, the TGI with ACHN renal was 17.7 µM; in the assay with HCC-2998 colon, 25.3 µM; in the assay on HCT-15 colon, 13.3 µM; with SNB-75 CNS, > 100 µM; in the assay on SK-OV-3 ovarian it was > 100 µM; in the assay on SW-620 colon, > 40.8 µM.

In the case of `CC1=NN(c2ccccc2)C2(C1)C(Cl)C(=O)N2c1nc2ccccc2s1` (centres undefined), the TGI with TK-10 renal was > 100 µM; in the assay with RPMI-8226 leukemia it was 67.2 µM; with UACC-257 melanoma, > 100 µM; with T-47D breast, > 100 µM; in the assay with MCF7 breast, > 100 µM; in the assay with U251 CNS, > 100 µM. The TGI in the assay with M14 melanoma is > 100 µM; in the assay with COLO 205 colon it was 80.6 µM; with UO-31 renal, > 100 µM; with NCI-H460 lung, > 100 µM; in the assay with K-562 leukemia, > 100 µM; in the assay on OVCAR-8 ovarian, > 100 µM. Besides, the TGI with ACHN renal, in the assay with HCC-2998 colon, with HCT-15 colon, in the assay with SNB-75 CNS, in the assay with SK-OV-3 ovarian and in the assay on SW-620 colon was > 100 µM each time.
